As usually defined, the IC50 is the concentration that gives 50% inhibition. As a reminder, the EC50 is the midpoint of the concentration-response curve.

The target of one assay is EZH2 (Homo sapiens, UniProt Q15910). The assay can be described thus: EZH2 nuc BSA Brij 1.5 (IC50): rPRC2, biotinylated oligonucleosome substrate, 3H SAM FlashPlate. It counts as biochemical. The protocol:
EZH2 Nuc BSA Brij 1.5 (IC50):
Assays were carried out by mixing rPRC2 together with biotinylated oligonucleosome substrates in the presence of the radio-labeled enzyme co-factor, S-adenosyl-L-methionine (^3H SAM) (Perkin Elmer) and monitoring the enzymatically mediated transfer of tritiated methyl groups from ^3H SAM to histone lysine residues. The amount of resulting tritiated methyl histone product was measured by first capturing the biotinylated oligonucleosomes in streptavidin (SAV) coated FlashPlates (Perkin Elmer), followed by a wash step to remove un-reacted ^3H SAM, and then counting on a TopCount NXT 384 well plate scintillation counter (Perkin Elmer). The final assay conditions for EZH2 were as follows: 50 mM Tris Buffer pH 8.5, 1 mM DTT, 69 μM Brij-35 detergent, 5.0 mM MgCl2, 0.1 mg/mL BSA, 0.2 μM ^3H SAM, 0.2 μM biotinylated oligonucleosomes, 3.6 μM H3K27me3 peptide and 2 nM EZH2.
Compound IC50 Measurements were Obtained as Follows:
Compounds were first dissolved in 100% DMSO as 10 mM stock solutions. Ten point dose response curves were generated by dispensing varying amounts of the 10 mM compound solution in 10 wells of the 384 well plate (Echo; Labcyte), pure DMSO was then used to backfill the wells to insure all wells have the same amount of DMSO. A 12.5 μL volume of the HMT enzyme, H3K27me3 peptide and oligonucleosome substrate in assay buffer was added to each well of the assay plate using a Multidrop Combi (ThermoFisher). Compounds were pre-incubated with the enzyme for 20 min, followed by initiation of the methyltransferase reaction by addition of 12.5 μL of ^3H SAM in assay buffer (final volume=25 μL). The final concentrations of compounds ranged from a top default concentration of 80 μM down to 0.16 μM in ten 2-fold dilution steps. Reactions were carried out for 60 minutes and quenched with 20 μL per well of 1.96 mM SAH, 50 mM Tris pH 8.5, 200 mM EDTA. Stopped reactions were transferred to SAV coated Flashplates (Perkin Elmer), incubated for 120 min, washed with a plate washer, and then read on the TopCount NXT (1.0 min/well) to measure the amount of methyl histone product formed during the reaction. The amount of methyl histone product was compared with the amount of product formed in the 0% and 100% inhibition control wells allowing the calculation of % Inhibition in the presence of the individual compounds at various concentrations. IC50's were computed using a 4 parameter fit non-linear curve fitting software package (XLFIT, part of the database package, ActivityBase (IDBS)) where the four parameters were IC50, Hill slope, pre-transitional baseline (0% INH), and post-transitional baseline (100% INH); with the latter two parameters being fixed to zero and 100%, respectively, by default.

For a further assay, the target named is T1, PRC2 containing wt EZH2 (Homo sapiens, UniProt Q15910).
T1 construct: made in house
The assay can be described thus: EZH2 pep BSA Brij 4.0 LowE (IC50): 3H-SAM incorporation into biotinylated H3 peptide. The conditions noted are these: 20 pM PRC2 wt EZH2, 0.9 μM 3H-SAM, biotinylated H3 peptide substrate, 2 μM H3K27me3 activating peptide; read-out: EZH2 pep BSA Brij 4.0 LowE (IC50). Type of assay: biochemical. The procedure, abridged:
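PRC2 (wt EZH2, 20 pM) pre-incubated 120 min with compound, 0.9 μM 3H-SAM and 2 μM H3K27me3 activating peptide in pH 8.5 Tris/DTT/Brij-35/0.1% BSA, 0.8% DMSO. Biotinylated H3K27me1 peptide added (2 μM stock), 5 h at room temperature, EDTA/SAH quench, streptavidin Flashplate capture. IC50 from four-parameter fit versus full-activity and no-enzyme controls.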

In another assay the test system is H3K27me3 mark. The assay can be described thus: H3K27me3 Alpha Hela Assay (AlphaLISA). Type of assay: cell-based. The conditions noted are these: Hela cells, read-out: EZH2 Cell H3K27me3 Alpha HeLa (EC50 K27me3). The procedure, abridged:
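HeLa cells at 1,000/well were treated with ten 3-fold compound doses for 72 h at 37 °C. After lysis and histone extraction, H3K27me3 was detected by AlphaLISA with anti-K27me3 acceptor beads, biotinylated anti-H3 (C-ter) antibody (3 nM final) and streptavidin donor beads (20 μg/mL final). Signals were normalized to DMSO and curve-fitted for EC50.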
In general terms: Alpha assays give light when donor and acceptor beads are brought close together.

Setting [1] is: 2 nM EZH2, 0.2 μM biotinylated oligonucleosomes, 0.2 μM 3H SAM, 3.6 μM H3K27me3 peptide; read-out: EZH2 nuc BSA Brij 1.5 (IC50).
The mark [2] stands for this setting: EZH2 nuc BSA Brij 1.5 (IC50), 2 nM EZH2, 0.2 μM biotinylated oligonucleosomes, 0.2 μM 3H SAM, 3.6 μM H3K27me3 peptide.
[3] abbreviates: read-out: EZH2 nuc BSA Brij 1.5 (IC50); 2 nM EZH2, 0.2 μM biotinylated oligonucleosomes, 0.2 μM 3H SAM, 3.6 μM H3K27me3 peptide.

The structures appear in SMILES notation. Like-named read-outs stand apart in the source and are kept apart here. A value given as a limit tells only on which side of the number the result lay.

Sequence of EZH2 (Q15910 whole entry): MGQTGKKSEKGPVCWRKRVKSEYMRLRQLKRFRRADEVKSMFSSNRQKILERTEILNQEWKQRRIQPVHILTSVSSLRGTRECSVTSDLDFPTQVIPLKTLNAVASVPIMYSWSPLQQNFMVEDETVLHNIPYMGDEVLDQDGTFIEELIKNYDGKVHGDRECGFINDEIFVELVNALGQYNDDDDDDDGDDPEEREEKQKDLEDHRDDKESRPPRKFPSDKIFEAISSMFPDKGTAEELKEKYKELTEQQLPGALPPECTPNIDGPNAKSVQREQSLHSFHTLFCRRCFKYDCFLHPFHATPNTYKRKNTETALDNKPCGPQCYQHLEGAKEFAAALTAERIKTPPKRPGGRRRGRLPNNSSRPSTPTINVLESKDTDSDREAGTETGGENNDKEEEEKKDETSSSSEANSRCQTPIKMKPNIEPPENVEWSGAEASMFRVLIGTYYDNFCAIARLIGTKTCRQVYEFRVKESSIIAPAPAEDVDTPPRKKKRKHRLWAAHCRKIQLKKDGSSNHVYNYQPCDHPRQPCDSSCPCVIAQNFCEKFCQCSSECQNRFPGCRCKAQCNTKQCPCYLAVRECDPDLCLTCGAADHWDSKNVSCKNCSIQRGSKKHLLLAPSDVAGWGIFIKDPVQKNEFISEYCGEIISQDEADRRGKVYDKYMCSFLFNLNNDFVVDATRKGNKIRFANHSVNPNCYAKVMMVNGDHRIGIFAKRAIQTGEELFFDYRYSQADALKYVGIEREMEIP
Sequence of EZH2 (O75530 whole entry partner): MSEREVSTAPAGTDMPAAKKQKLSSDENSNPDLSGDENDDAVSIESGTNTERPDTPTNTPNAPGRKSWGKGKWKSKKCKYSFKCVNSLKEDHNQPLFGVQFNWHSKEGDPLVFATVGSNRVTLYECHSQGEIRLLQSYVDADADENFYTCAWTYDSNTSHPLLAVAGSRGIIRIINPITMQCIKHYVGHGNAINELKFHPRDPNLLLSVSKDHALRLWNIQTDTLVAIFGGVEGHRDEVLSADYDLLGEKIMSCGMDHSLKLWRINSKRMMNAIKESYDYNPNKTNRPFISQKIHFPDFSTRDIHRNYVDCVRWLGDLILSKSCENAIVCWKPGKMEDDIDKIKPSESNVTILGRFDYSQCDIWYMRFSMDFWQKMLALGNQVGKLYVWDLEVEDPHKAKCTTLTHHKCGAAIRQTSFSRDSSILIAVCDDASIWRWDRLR
Sequence of EZH2 (Q15022 whole entry partner): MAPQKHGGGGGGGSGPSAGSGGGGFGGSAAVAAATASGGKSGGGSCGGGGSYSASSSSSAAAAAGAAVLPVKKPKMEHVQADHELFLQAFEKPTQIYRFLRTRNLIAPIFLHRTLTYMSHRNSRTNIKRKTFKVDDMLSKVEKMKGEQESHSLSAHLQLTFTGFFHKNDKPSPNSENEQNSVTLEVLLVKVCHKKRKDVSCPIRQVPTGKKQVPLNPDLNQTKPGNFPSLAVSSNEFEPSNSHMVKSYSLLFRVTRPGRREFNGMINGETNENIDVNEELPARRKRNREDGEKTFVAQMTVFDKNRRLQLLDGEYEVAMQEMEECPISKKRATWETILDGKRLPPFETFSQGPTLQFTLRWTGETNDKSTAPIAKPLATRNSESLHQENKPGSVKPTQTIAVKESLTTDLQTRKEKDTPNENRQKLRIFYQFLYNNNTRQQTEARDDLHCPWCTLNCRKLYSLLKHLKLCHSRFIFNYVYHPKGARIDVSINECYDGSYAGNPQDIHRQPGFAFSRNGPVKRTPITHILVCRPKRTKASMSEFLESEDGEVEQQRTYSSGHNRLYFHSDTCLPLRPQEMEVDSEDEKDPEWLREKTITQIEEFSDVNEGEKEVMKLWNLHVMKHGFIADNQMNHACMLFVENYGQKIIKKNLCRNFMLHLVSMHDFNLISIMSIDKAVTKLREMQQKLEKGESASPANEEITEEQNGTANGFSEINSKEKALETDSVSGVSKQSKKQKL
T1 sequence (Q15910 whole entry): as the sequence (Q15910 whole entry) above
T1 sequence (O75530 whole entry partner): as the sequence (O75530 whole entry partner) above
T1 sequence (Q15022 whole entry partner): as the sequence (Q15022 whole entry partner) above
T1 sequence (Q09028 whole entry partner): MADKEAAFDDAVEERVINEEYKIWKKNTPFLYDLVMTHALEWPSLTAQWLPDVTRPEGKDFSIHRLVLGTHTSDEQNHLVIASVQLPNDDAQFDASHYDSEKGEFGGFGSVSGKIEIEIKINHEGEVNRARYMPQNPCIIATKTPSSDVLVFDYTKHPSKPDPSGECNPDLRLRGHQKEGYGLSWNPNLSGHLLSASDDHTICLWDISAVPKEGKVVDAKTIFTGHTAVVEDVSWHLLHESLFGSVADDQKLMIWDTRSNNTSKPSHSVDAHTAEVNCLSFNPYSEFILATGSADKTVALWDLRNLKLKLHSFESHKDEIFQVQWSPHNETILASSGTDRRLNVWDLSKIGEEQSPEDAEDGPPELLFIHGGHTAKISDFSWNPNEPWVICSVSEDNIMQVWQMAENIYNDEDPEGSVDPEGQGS
T1 sequence (Q6ZN18 whole entry partner): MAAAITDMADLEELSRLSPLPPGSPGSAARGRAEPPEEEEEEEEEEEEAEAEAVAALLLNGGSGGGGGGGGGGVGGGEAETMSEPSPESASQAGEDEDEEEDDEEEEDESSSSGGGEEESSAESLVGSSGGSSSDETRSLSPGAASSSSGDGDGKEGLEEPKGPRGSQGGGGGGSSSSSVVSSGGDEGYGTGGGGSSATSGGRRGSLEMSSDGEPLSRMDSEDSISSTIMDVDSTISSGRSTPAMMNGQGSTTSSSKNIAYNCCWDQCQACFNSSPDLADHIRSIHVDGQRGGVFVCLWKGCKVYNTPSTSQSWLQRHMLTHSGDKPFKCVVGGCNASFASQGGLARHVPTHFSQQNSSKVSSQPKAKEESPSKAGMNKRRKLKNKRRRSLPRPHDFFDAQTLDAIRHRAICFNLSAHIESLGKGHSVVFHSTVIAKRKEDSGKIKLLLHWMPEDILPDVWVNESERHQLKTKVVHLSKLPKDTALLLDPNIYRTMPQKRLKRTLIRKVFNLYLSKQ

Regarding `COc1cc(C)[nH]c(=O)c1CNC(=O)c1c(C)n(C(C)C2CCN(C)C(c3ccc(F)cc3)C2)c2ccccc12` (stereo not shown) [Compound 33, 1-(1-(2-(4-fluorophenyl)-1-methylpiperidin-4-yl)ethyl)-N-((4-methoxy-6-methyl-2-oxo-1,2-dihydropyridin-3-yl)methyl)-2-methyl-1H-indole-3-carboxamide], the IC50 on EZH2 (setting [1]) and on PRC2 containing wt EZH2 was below 100 nM in each case. Moreover, in the assay with H3K27me3 mark (Homo sapiens, HeLa, 72 h), the EC50 lay within 400 to 2000 nM.

As to `COc1cc(C)[nH]c(=O)c1CNC(=O)c1c(C)n(C(C)C2CCNC(c3ccc(F)cc3)C2)c2ccccc12` (single isomer, unassigned) [Compound 32, 1-(1-(2-(4-fluorophenyl)piperidin-4-yl)ethyl)-N-((4-methoxy-6-methyl-2-oxo-1,2-dihydropyridin-3-yl)methyl)-2-methyl-1H-indole-3-carboxamide], the 50% inhibitory concentration (IC50) at EZH2 (setting [1]) was below 100 nM. Further, the EC50 with H3K27me3 mark (72 hrs) was above 2000 nM.

For the compound `COc1cc(C)[nH]c(=O)c1CNC(=O)c1c(C)n(C(C)C2CCNC(C(F)(F)F)C2)c2ccccc12` (single isomer, unassigned) [Compound 22, N-((4-methoxy-6-methyl-2-oxo-1,2-dihydropyridin-3-yl)methyl)-2-methyl-1-(1-(2-(trifluoromethyl)piperidin-4-yl)ethyl)-1H-indole-3-carboxamide], at EZH2 (setting [2]), the IC50 is below 100 nM. Further, in the assay with H3K27me3 mark (72 hrs), the 50% effective concentration (EC50) lay within 400 to 2000 nM.

Consider `COc1cc(C)[nH]c(=O)c1CNC(=O)c1c(C)n(C(C)C2CCN(C)C(C(F)(F)F)C2)c2ccccc12` (single isomer, unassigned) [Compound 13, N-((4-methoxy-6-methyl-2-oxo-1,2-dihydropyridin-3-yl)methyl)-2-methyl-1-(1-(1-methyl-2-(trifluoromethyl)piperidin-4-yl)ethyl)-1H-indole-3-carboxamide], for which, on EZH2 (setting [2]), the IC50 is below 100 nM. Also, the EC50 with H3K27me3 mark (Homo sapiens, HeLa, 72 h) lay within 400 to 2000 nM.

With `COc1cc(C)[nH]c(=O)c1CNC(=O)c1c(C)n(C(C)C2CCNCC2C(F)(F)F)c2ccccc12` (stereo not shown) [Compound 19, N-((4-methoxy-6-methyl-2-oxo-1,2-dihydropyridin-3-yl)methyl)-2-methyl-1-(1-(3-(trifluoromethyl)piperidin-4-yl)ethyl)-1H-indole-3-carboxamide], the IC50 against EZH2 (setting [2]) is below 100 nM. For the same compound, the 50% effective concentration (EC50) with H3K27me3 mark (Homo sapiens, HeLa, 72 h) is above 2000 nM.

Regarding `COc1cc(C)[nH]c(=O)c1CNC(=O)c1c(C)n(C(C)C2CCNc3ccccc32)c2ccccc12` (single isomer, unassigned) [Compound 1], the concentration for half-maximal inhibition (IC50) against EZH2 (setting [2]) was below 100 nM. Besides, in the assay with H3K27me3 mark (Homo sapiens, HeLa, 72 h), the half-maximal effective concentration (EC50) is above 2000 nM.

In turn, `COc1cc(C)[nH]c(=O)c1CNC(=O)c1c(C)n(C(C)C2CCN(CC(F)(F)F)C(C)C2)c2ccccc12` (single isomer, unassigned) [Compound 42, N-((4-methoxy-6-methyl-2-oxo-1,2-dihydropyridin-3-yl)methyl)-2-methyl-1-(1-(2-methyl-1-(2,2,2-trifluoroethyl)piperidin-4-yl)ethyl)-1H-indole-3-carboxamide] registered an IC50 against EZH2 (setting [2]) below 100 nM. The EC50 in the assay on H3K27me3 mark (Homo sapiens, HeLa, 72 h) lay within 400 to 2000 nM.

Consider `CCN1CCC(C(C)n2c(C)c(C(=O)NCc3c(OC)cc(C)[nH]c3=O)c3ccccc32)CC1C(F)(F)F` (single isomer, unassigned) [Compound 10, 1-(1-(1-ethyl-2-(trifluoromethyl)piperidin-4-yl)ethyl)-N-((4-methoxy-6-methyl-2-oxo-1,2-dihydropyridin-3-yl)methyl)-2-methyl-1H-indole-3-carboxamide], for which the IC50 on EZH2 (setting [3]) was below 100 nM. In addition, the EC50 in the assay with H3K27me3 mark (72 hrs) was below 400 nM.

For `COc1cc(C)[nH]c(=O)c1CNC(=O)c1c(C)n(C(C)C2CCNC(C(F)(F)F)C2)c2ccccc12` (single isomer, unassigned) [Compound 23, N-((4-methoxy-6-methyl-2-oxo-1,2-dihydropyridin-3-yl)methyl)-2-methyl-1-(1-(2-(trifluoromethyl)piperidin-4-yl)ethyl)-1H-indole-3-carboxamide], the concentration for half-maximal inhibition (IC50) at EZH2 (setting [2]) was 100 to 1000 nM. Besides, the concentration giving a half-maximal response (EC50) in the assay with H3K27me3 mark (72 hrs) was above 2000 nM.

As for `COc1cc(C)[nH]c(=O)c1CNC(=O)c1c(C)n(C(C)C2CCNC(C(F)F)C2)c2ccccc12` (single isomer, unassigned) [Compound 37, 1-(1-(2-(difluoromethyl)piperidin-4-yl)ethyl)-N-((4-methoxy-6-methyl-2-oxo-1,2-dihydropyridin-3-yl)methyl)-2-methyl-1H-indole-3-carboxamide], the IC50 at EZH2 (setting [3]) is below 100 nM. The EC50 with H3K27me3 mark (72 hrs) lay within 400 to 2000 nM.

At EZH2 (setting [2]), `COc1cc(C)[nH]c(=O)c1CNC(=O)c1c(C)n(C(C)C2CCNC(C(F)(F)F)C2)c2ccccc12` (single isomer, unassigned) [Compound 20, N-((4-methoxy-6-methyl-2-oxo-1,2-dihydropyridin-3-yl)methyl)-2-methyl-1-(1-(2-(trifluoromethyl)piperidin-4-yl)ethyl)-1H-indole-3-carboxamide] returned a concentration for half-maximal inhibition (IC50) below 100 nM. Further, in the assay with H3K27me3 mark (72 hrs), the EC50 fell in the range of 400 to 2000 nM.

As to `COc1cc(C)[nH]c(=O)c1CNC(=O)c1c(C)n(C(C)C2CCNC3CCCCC32)c2ccccc12` (stereo not shown) [Compound 4, 1-(1-(decahydroquinolin-4-yl)ethyl)-N-((4-methoxy-6-methyl-2-oxo-1,2-dihydropyridin-3-yl)methyl)-2-methyl-1H-indole-3-carboxamide], the 50% inhibitory concentration (IC50) at EZH2 (setting [2]) was below 100 nM. The EC50 in the assay with H3K27me3 mark (Homo sapiens, HeLa, 72 h) was above 2000 nM.

For `COc1cc(C)[nH]c(=O)c1CNC(=O)c1c(C)n(C(C)C2CCNC(C(F)F)C2)c2ccccc12` (single isomer, unassigned) [Compound 36, 1-(1-(2-(difluoromethyl)piperidin-4-yl)ethyl)-N-((4-methoxy-6-methyl-2-oxo-1,2-dihydropyridin-3-yl)methyl)-2-methyl-1H-indole-3-carboxamide], the half-maximal inhibitory concentration (IC50) against EZH2 (setting [2]) is below 100 nM. In addition, the concentration for a half-maximal effect (EC50) in the assay on H3K27me3 mark (72 hrs) is above 2000 nM.

Compound `CCN1CCC(C(C)n2c(C)c(C(=O)NCc3c(OC)cc(C)[nH]c3=O)c3ccccc32)CC1C(F)(F)F` (single isomer, unassigned) [Compound 9, 1-(1-(1-ethyl-2-(trifluoromethyl)piperidin-4-yl)ethyl)-N-((4-methoxy-6-methyl-2-oxo-1,2-dihydropyridin-3-yl)methyl)-2-methyl-1H-indole-3-carboxamide] gave a half-inhibitory concentration (IC50) on EZH2 (setting [2]) below 100 nM. Moreover, the concentration giving a half-maximal response (EC50) in the assay with H3K27me3 mark (72 hrs) is above 2000 nM.

Take `COc1cc(C)[nH]c(=O)c1CNC(=O)c1c(C)n(C(C)C2CCN(CC3CC3)C(C(F)(F)F)C2)c2ccccc12` (single isomer, unassigned) [Compound 39, 1-(1-(1-(cyclopropylmethyl)-2-(trifluoromethyl)piperidin-4-yl)ethyl)-N-((4-methoxy-6-methyl-2-oxo-1,2-dihydropyridin-3-yl)methyl)-2-methyl-1H-indole-3-carboxamide]: on EZH2 (setting [3]), the IC50 was below 100 nM. Moreover, in the assay with H3K27me3 mark (72 hrs), the concentration for a half-maximal effect (EC50) is above 2000 nM.

For the origin of these results see US20180037568A1, “MODULATORS OF METHYL MODIFYING ENZYMES, COMPOSITIONS AND USES THEREOF” (Constellation Pharmaceuticals, Inc., priority 2015, published 2018).
